Assay results taken from patent US12077503B2, “Substituted cyclic amides and their use as herbicides” (FMC CORPORATION, priority 2015, dated 2024).

Key:
Assay in all cases: Test C preemergence
Assay type in all cases: in vivo
[1] = system: oilseed rape (Brassica napus); conditions: for Plant response rating, Oilseed Rape: scale 0 to 100, 0 no effect, 100 complete control
Outline: (§1)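 After treatment with surfactant-containing formulations, either preemergence to seeds in loam-sand soil or postemergence to potted seedlings at 2–18 cm, plants were kept 13–15 d in a greenhouse. Observers then compared them with controls and assigned ratings, 0 signifying no effect and 100 complete control.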

[2] = system: ragweed (common ragweed, Ambrosia elatior); conditions: for Plant response rating, Ragweed: scale 0 to 100, 0 no effect, 100 complete control
Outline: as §1

[3] = system: ryegrass, Italian (Italian ryegrass, Lolium multiflorum); conditions: for Plant response rating, Ryegrass, Italian: scale 0 to 100, 0 no effect, 100 complete control
Outline: as §1

[4] = system: johnsongrass (Sorghum halepense); conditions: for Plant response rating, Johnsongrass: scale 0 to 100, 0 no effect, 100 complete control
Outline: as §1

[5] = system: velvetleaf (Abutilon theophrasti); conditions: for Plant response rating, Velvetleaf: scale 0 to 100, 0 no effect, 100 complete control
Outline: as §1

[6] = system: foxtail, giant (giant foxtail, Setaria faberii); conditions: for Plant response rating, Foxtail, Giant: scale 0 to 100, 0 no effect, 100 complete control
Outline: as §1

[7] = system: crabgrass, large (large crabgrass, Digitaria sanguinalis); conditions: for Plant response rating, Crabgrass, Large: scale 0 to 100, 0 no effect, 100 complete control
Outline: as §1

soybean (Glycine max) = conditions: for Plant response rating, Soybean: scale 0 to 100, 0 no effect, 100 complete control
Outline: as §1

[8] = system: Galium (catchweed bedstraw, Galium aparine); conditions: for Plant response rating, Galium: scale 0 to 100, 0 no effect, 100 complete control
Outline: as §1

[9] = system: morningglory (Ipomoea coccinea); conditions: for Plant response rating, Morningglory: scale 0 to 100, 0 no effect, 100 complete control
Outline: as §1

[10] = system: waterhemp (common waterhemp, Amaranthus rudis); conditions: for Plant response rating, Waterhemp: scale 0 to 100, 0 no effect, 100 complete control
Outline: as §1

[11] = system: wheat (winter wheat, Triticum aestivum); conditions: for Plant response rating, Wheat: scale 0 to 100, 0 no effect, 100 complete control
Outline: as §1

[12] = system: pigweed (Amaranthus retroflexus); conditions: for Plant response rating, Pigweed: scale 0 to 100, 0 no effect, 100 complete control
Outline: as §1

[13] = system: blackgrass (Alopecurus myosuroides); conditions: for Plant response rating, Blackgrass: scale 0 to 100, 0 no effect, 100 complete control
Outline: as §1

corn (Zea mays) = conditions: for Plant response rating, Corn: scale 0 to 100, 0 no effect, 100 complete control
Outline: as §1

[14] = system: nutsedge, yellow (yellow nutsedge, Cyperus esculentus); conditions: for Plant response rating, Nutsedge, Yellow: scale 0 to 100, 0 no effect, 100 complete control
Outline: as §1

[15] = system: barnyardgrass (Echinochloa crus-galli); conditions: for Plant response rating, Barnyardgrass: scale 0 to 100, 0 no effect, 100 complete control
Outline: as §1

[16] = 31 g ai/ha, 0 is no effect, 100 is complete control

CN1CC(c2cccc(OC(F)F)c2)C(C(=O)Nc2cccc(F)c2F)C1=O (centres unmarked) [Compound 616]
Plant response rating (scale of 0 to 100), Oilseed Rape [1, 16]: 60 | Plant response rating, Oilseed Rape ([1]; 62 g ai/ha): 60 | Plant response rating, Oilseed Rape ([1]; 125 g ai/ha): 70 | Plant response rating, Oilseed Rape ([1]; 250 g ai/ha): 85 | Plant response rating (scale of 0 to 100), Ragweed [2, 16]: 25 | Plant response rating, Ragweed ([2]; 62 g ai/ha): 25 | Plant response rating, Ragweed ([2]; 125 g ai/ha): 50 | Plant response rating, Ragweed ([2]; 250 g ai/ha): 75 | Plant response rating (scale of 0 to 100), Ryegrass, Italian [3, 16]: 30 | Plant response rating, Ryegrass, Italian ([3]; 62 g ai/ha): 35 | Plant response rating, Ryegrass, Italian ([3]; 125 g ai/ha): 90 | Plant response rating, Ryegrass, Italian ([3]; 250 g ai/ha): 85 | Plant response rating (scale of 0 to 100), Johnsongrass [4, 16]: 60 | Plant response rating, Johnsongrass ([4]; 62 g ai/ha): 85 | Plant response rating, Johnsongrass ([4]; 125 g ai/ha): 75 | Plant response rating, Johnsongrass ([4]; 250 g ai/ha): 90 | Plant response rating (scale of 0 to 100), Velvetleaf [5, 16]: 0 | Plant response rating, Velvetleaf ([5]; 62 g ai/ha): 10 | Plant response rating, Velvetleaf ([5]; 125 g ai/ha): 40 | Plant response rating, Velvetleaf ([5]; 250 g ai/ha): 35 | Plant response rating (scale of 0 to 100), Foxtail, Giant [6, 16]: 90 | Plant response rating, Foxtail, Giant ([6]; 62 g ai/ha): 90 | Plant response rating, Foxtail, Giant ([6]; 125 g ai/ha): 90 | Plant response rating, Foxtail, Giant ([6]; 250 g ai/ha): 95 | Plant response rating (scale of 0 to 100), Crabgrass, Large [7, 16]: 90 | Plant response rating, Crabgrass, Large ([7]; 62 g ai/ha): 90 | Plant response rating, Crabgrass, Large ([7]; 125 g ai/ha): 95 | Plant response rating, Crabgrass, Large ([7]; 250 g ai/ha): 95 | Plant response rating (scale of 0 to 100), Soybean (soybean (Glycine max); [16]): 0 | Plant response rating, Soybean (soybean (Glycine max); 62 g ai/ha): 0 | Plant response rating, Soybean (soybean (Glycine max); 125 g ai/ha): 0 | Plant response rating, Soybean (soybean (Glycine max); 250 g ai/ha): 15 | Plant response rating (scale of 0 to 100), Galium [8, 16]: 90 | Plant response rating, Galium ([8]; 62 g ai/ha): 85 | Plant response rating, Galium ([8]; 125 g ai/ha): 85 | Plant response rating, Galium ([8]; 250 g ai/ha): 90 | Plant response rating (scale of 0 to 100), Morningglory [9, 16]: 0 | Plant response rating, Morningglory ([9]; 62 g ai/ha): 0 | Plant response rating, Morningglory ([9]; 125 g ai/ha): 10 | Plant response rating, Morningglory ([9]; 250 g ai/ha): 10 | Plant response rating (scale of 0 to 100), Waterhemp [10, 16]: 50 | Plant response rating, Waterhemp ([10]; 62 g ai/ha): 80 | Plant response rating, Waterhemp ([10]; 125 g ai/ha): 85 | Plant response rating, Waterhemp ([10]; 250 g ai/ha): 85 | Plant response rating (scale of 0 to 100), Wheat [11, 16]: 0 | Plant response rating, Wheat ([11]; 62 g ai/ha): 10 | Plant response rating, Wheat ([11]; 125 g ai/ha): 50 | Plant response rating, Wheat ([11]; 250 g ai/ha): 85 | Plant response rating (scale of 0 to 100), Pigweed [12, 16]: 75 | Plant response rating, Pigweed ([12]; 62 g ai/ha): 80 | Plant response rating, Pigweed ([12]; 125 g ai/ha): 80 | Plant response rating, Pigweed ([12]; 250 g ai/ha): 80 | Plant response rating (scale of 0 to 100), Blackgrass [13, 16]: 30 | Plant response rating, Blackgrass ([13]; 62 g ai/ha): 45 | Plant response rating, Blackgrass ([13]; 125 g ai/ha): 80 | Plant response rating, Blackgrass ([13]; 250 g ai/ha): 80 | Plant response rating (scale of 0 to 100), Corn (corn (Zea mays); [16]): 55 | Plant response rating, Corn (corn (Zea mays); 62 g ai/ha): 65 | Plant response rating, Corn (corn (Zea mays); 125 g ai/ha): 80 | Plant response rating, Corn (corn (Zea mays); 250 g ai/ha): 85 | Plant response rating (scale of 0 to 100), Nutsedge, Yellow [14, 16]: 0 | Plant response rating, Nutsedge, Yellow ([14]; 62 g ai/ha): 0 | Plant response rating, Nutsedge, Yellow ([14]; 125 g ai/ha): 0 | Plant response rating, Nutsedge, Yellow ([14]; 250 g ai/ha): 0 | Plant response rating (scale of 0 to 100), Barnyardgrass [15, 16]: 90 | Plant response rating, Barnyardgrass ([15]; 62 g ai/ha): 90 | Plant response rating, Barnyardgrass ([15]; 125 g ai/ha): 95 | Plant response rating, Barnyardgrass ([15]; 250 g ai/ha): 95
